Three compounds from patent US20260234157A1, “COMPOUND AND METHOD FOR TARGETED DEGRADATION OF ANDROGEN RECEPTOR” (Gan & Lee Pharmaceuticals Co., Ltd., priority 2023, published 2026) can be followed below.

Substitutions are numbered along the chain they refer to.

One test deals with T1, AR protein (Homo sapiens, UniProt P10275, T878A).
T1 construct: degradation activity of the compounds disclosed in the present disclosure on AR protein in LNCaP cells; host or cells: LNCaP FGC
T1 sequence (P10275 1-920 T878A): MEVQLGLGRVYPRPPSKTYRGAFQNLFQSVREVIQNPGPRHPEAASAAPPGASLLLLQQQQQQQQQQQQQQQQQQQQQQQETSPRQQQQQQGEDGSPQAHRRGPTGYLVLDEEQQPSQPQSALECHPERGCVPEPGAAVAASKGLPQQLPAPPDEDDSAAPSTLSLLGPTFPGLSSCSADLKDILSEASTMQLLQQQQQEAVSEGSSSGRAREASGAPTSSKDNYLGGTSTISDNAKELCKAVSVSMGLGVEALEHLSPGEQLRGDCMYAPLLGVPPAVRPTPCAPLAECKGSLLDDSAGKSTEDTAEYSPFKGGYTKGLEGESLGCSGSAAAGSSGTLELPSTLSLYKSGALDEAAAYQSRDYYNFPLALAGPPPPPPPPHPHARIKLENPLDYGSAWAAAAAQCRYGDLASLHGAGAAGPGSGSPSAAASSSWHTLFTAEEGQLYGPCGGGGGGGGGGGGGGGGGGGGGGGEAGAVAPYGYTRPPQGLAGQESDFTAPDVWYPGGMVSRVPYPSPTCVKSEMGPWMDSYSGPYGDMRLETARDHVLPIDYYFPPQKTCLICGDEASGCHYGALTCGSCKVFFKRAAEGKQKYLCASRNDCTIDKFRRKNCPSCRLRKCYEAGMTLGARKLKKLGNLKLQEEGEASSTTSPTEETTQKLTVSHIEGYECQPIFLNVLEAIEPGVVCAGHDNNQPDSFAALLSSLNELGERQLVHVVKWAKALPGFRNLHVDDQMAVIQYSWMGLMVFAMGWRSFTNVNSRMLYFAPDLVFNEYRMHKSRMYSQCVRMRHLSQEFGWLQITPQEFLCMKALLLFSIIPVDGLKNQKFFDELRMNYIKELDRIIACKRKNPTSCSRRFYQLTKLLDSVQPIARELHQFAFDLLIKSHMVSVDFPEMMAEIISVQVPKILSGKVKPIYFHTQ
The experiment in a line: Degradation of AR protein in LNCaP cells (Western blot). The test is classed as cell-based. The following applies: LNCaP cells, compound 10 nM, 8 hours, Western blot grayscale, GAPDH internal reference; read-out: Degradation rates of the AR protein in LNCaP cells, 10 nM (%). In outline:
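AR assessed by SDS-PAGE/Western blot with infrared imaging; band greyscale normalised to GAPDH gave percent degradation.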
On the technique in general: A western blot detects proteins with antibodies after separation by electrophoresis.
In the case of `CCC1(CN2CCC3(CC2)COc2c3ccc3c2CN(C2CCC(=O)NC2=O)C3=O)CCN(c2ccc(C(=O)N[C@H]3CC[C@H](Oc4ccc(C#N)c(Cl)c4)CC3)nn2)CC1` (stereo partly drawn) [Compound 236], the inhibition at 0.01 µM came to 44%.

For the compound `CC1(C)[C@H](NC(=O)c2ccc(N3CCC(F)(CN4CCC5(CC4)COc4c5ccc5c4CN(C4CCC(=O)NC4=O)C5=O)CC3)nn2)C(C)(C)[C@H]1Oc1ccc(C#N)c(C(F)(F)F)c1` (stereo partly drawn) [Compound 237], the inhibition at 0.01 µM was 6%.

Regarding `N#Cc1ccc(O[C@H]2CC[C@H](NC(=O)c3ccc(N4CCC(CN5CCC6(CC5)COc5c6ccc6c5CN(C5CCC(=O)NC5=O)C6=O)(C5CC5)CC4)nn3)CC2)cc1Cl` (stereo partly drawn) [Compound 238], the inhibition at 0.01 µM stood at 31%.

The test is the same for the next values; noted with them: LNCaP cells, compound 100 nM, 8 hours, Western blot grayscale, GAPDH internal reference; read-out: Degradation rates of the AR protein in LNCaP cells, 100 nM (%).
Regarding `CCC1(CN2CCC3(CC2)COc2c3ccc3c2CN(C2CCC(=O)NC2=O)C3=O)CCN(c2ccc(C(=O)N[C@H]3CC[C@H](Oc4ccc(C#N)c(Cl)c4)CC3)nn2)CC1` (stereo partly drawn) [Compound 236], the inhibition at 0.1 µM is 60%.

For `CC1(C)[C@H](NC(=O)c2ccc(N3CCC(F)(CN4CCC5(CC4)COc4c5ccc5c4CN(C4CCC(=O)NC4=O)C5=O)CC3)nn2)C(C)(C)[C@H]1Oc1ccc(C#N)c(C(F)(F)F)c1` (stereo partly drawn) [Compound 237], the inhibition at 0.1 µM was found to be 39%.

Consider `N#Cc1ccc(O[C@H]2CC[C@H](NC(=O)c3ccc(N4CCC(CN5CCC6(CC5)COc5c6ccc6c5CN(C5CCC(=O)NC5=O)C6=O)(C5CC5)CC4)nn3)CC2)cc1Cl` (stereo partly drawn) [Compound 238], for which the inhibition at 0.1 µM was 61%.

A further test concerns the target T2, AR protein (Homo sapiens, UniProt P10275).
T2 construct: degradation activity of the compounds disclosed in the present disclosure on AR protein in VCaP cells; host or cells: VCaP
T2 sequence (P10275 1-920): T1 sequence (P10275 1-920 T878A) with A878T
Briefly: Degradation of AR protein in VCaP cells (Western blot). The test is classed as cell-based. The following applies: compound at 10 nM, 8 hours, read-out: Degradation rate of the AR protein in VCaP cells, 10 nM (%). In outline: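 VCaP cells treated with compound alongside solvent controls for 8 h, then lysed in RIPA and protein quantified by BCA. AR detected by SDS-PAGE/Western blot with infrared imaging. Degradation rate calculated from band grayscale, with GAPDH as internal reference.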
Regarding `CCC1(CN2CCC3(CC2)COc2c3ccc3c2CN(C2CCC(=O)NC2=O)C3=O)CCN(c2ccc(C(=O)N[C@H]3CC[C@H](Oc4ccc(C#N)c(Cl)c4)CC3)nn2)CC1` (stereo partly drawn) [Compound 236], the inhibition at 0.01 µM was found to be 37%.

As to `CC1(C)[C@H](NC(=O)c2ccc(N3CCC(F)(CN4CCC5(CC4)COc4c5ccc5c4CN(C4CCC(=O)NC4=O)C5=O)CC3)nn2)C(C)(C)[C@H]1Oc1ccc(C#N)c(C(F)(F)F)c1` (stereo partly drawn) [Compound 237], the inhibition at 0.01 µM is -46%.

Turning to `N#Cc1ccc(O[C@H]2CC[C@H](NC(=O)c3ccc(N4CCC(CN5CCC6(CC5)COc5c6ccc6c5CN(C5CCC(=O)NC5=O)C6=O)(C5CC5)CC4)nn3)CC2)cc1Cl` (stereo partly drawn) [Compound 238], the inhibition at 0.01 µM was 54%.

Staying with this test, now noted: compound at 100 nM, 8 hours, read-out: Degradation rate of the AR protein in VCaP cells, 100 nM (%).
On to `CCC1(CN2CCC3(CC2)COc2c3ccc3c2CN(C2CCC(=O)NC2=O)C3=O)CCN(c2ccc(C(=O)N[C@H]3CC[C@H](Oc4ccc(C#N)c(Cl)c4)CC3)nn2)CC1` (stereo partly drawn) [Compound 236], for which the inhibition at 0.1 µM was 82%.

With `CC1(C)[C@H](NC(=O)c2ccc(N3CCC(F)(CN4CCC5(CC4)COc4c5ccc5c4CN(C4CCC(=O)NC4=O)C5=O)CC3)nn2)C(C)(C)[C@H]1Oc1ccc(C#N)c(C(F)(F)F)c1` (stereo partly drawn) [Compound 237], the inhibition at 0.1 µM was determined as 23%.

As to `N#Cc1ccc(O[C@H]2CC[C@H](NC(=O)c3ccc(N4CCC(CN5CCC6(CC5)COc5c6ccc6c5CN(C5CCC(=O)NC5=O)C6=O)(C5CC5)CC4)nn3)CC2)cc1Cl` (stereo partly drawn) [Compound 238], the inhibition at 0.1 µM is 79%.

For the next test, the system named is LNCaP FGC cells. Briefly: Inhibition of proliferation of LNCaP cells (WST-8). The test is classed as cell-based. The note with it: Homo sapiens, LNCaP, 96 h, LNCaP FGC cells, 96 hours, WST-8 absorbance at 450 nm; read-out: IC50 for inhibiting the proliferation of LNCaP cells. As to the method:
The cells were cultured in a cell culture incubator with 5% CO2 at 37° C. overnight. […] On the sixth day, 96 well plates were taken out, and 20 μL of WST-8 (Beytime, C0040) reagent was added to each well.
(In general: Tetrazolium assays rely on reduction of a dye to a coloured formazan, in cell work by metabolically active cells.)
With `CCC1(CN2CCC3(CC2)COc2c3ccc3c2CN(C2CCC(=O)NC2=O)C3=O)CCN(c2ccc(C(=O)N[C@H]3CC[C@H](Oc4ccc(C#N)c(Cl)c4)CC3)nn2)CC1` (stereo partly drawn) [Compound 236], the IC50 is 22 nM.

Turning to `CC1(C)[C@H](NC(=O)c2ccc(N3CCC(F)(CN4CCC5(CC4)COc4c5ccc5c4CN(C4CCC(=O)NC4=O)C5=O)CC3)nn2)C(C)(C)[C@H]1Oc1ccc(C#N)c(C(F)(F)F)c1` (stereo partly drawn) [Compound 237], the IC50 came out at 51 nM.

As for `N#Cc1ccc(O[C@H]2CC[C@H](NC(=O)c3ccc(N4CCC(CN5CCC6(CC5)COc5c6ccc6c5CN(C5CCC(=O)NC5=O)C6=O)(C5CC5)CC4)nn3)CC2)cc1Cl` (stereo partly drawn) [Compound 238], the IC50 was determined as 21 nM.

For the next test, the system named is VCaP cells. Briefly: Inhibition of proliferation of VCaP cells (WST-8). The test is classed as cell-based. The following applies: Homo sapiens; VCaP cells, 168 hours, WST-8 absorbance at 450 nm; read-out: IC50 for inhibiting the proliferation of VCaP cells. The procedure, abridged:
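VCaP FGC cells, 15000 per well in DMEM with 10% FBS, were cultured at 37° C, 5% CO2. On day nine, WST-8 reagent was added to read proliferation.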
Take `CCC1(CN2CCC3(CC2)COc2c3ccc3c2CN(C2CCC(=O)NC2=O)C3=O)CCN(c2ccc(C(=O)N[C@H]3CC[C@H](Oc4ccc(C#N)c(Cl)c4)CC3)nn2)CC1` (stereo partly drawn) [Compound 236]: the IC50 was determined as 1 nM.

As to `CC1(C)[C@H](NC(=O)c2ccc(N3CCC(F)(CN4CCC5(CC4)COc4c5ccc5c4CN(C4CCC(=O)NC4=O)C5=O)CC3)nn2)C(C)(C)[C@H]1Oc1ccc(C#N)c(C(F)(F)F)c1` (stereo partly drawn) [Compound 237], the IC50 turned out to be 4.5 nM.

`N#Cc1ccc(O[C@H]2CC[C@H](NC(=O)c3ccc(N4CCC(CN5CCC6(CC5)COc5c6ccc6c5CN(C5CCC(=O)NC5=O)C6=O)(C5CC5)CC4)nn3)CC2)cc1Cl` (stereo partly drawn) [Compound 238]: the IC50 turned out to be 1.6 nM.
